# Measured values as given in patent publication US20040224979A1, “Treating obesity with selective androgen receptor modulators” (priority 2002, published 2004).
# How the values were obtained:
# leptin = test: Serum leptin levels in intact male rats (ELISA) after SARM treatment by osmotic pump; details: for Leptin, percent of control / Normalized Leptin, percent of control: control = 100%; for Normalized Leptin: serum leptin normalized to body weight; for Leptin: serum, intact male rats, 500 μg/day s.c. osmotic pump
# Method: All doses were delivered by subcutaneous placement of Alzet osmotic pumps.
# Seven, 14 and 28 days after pump implantation, animals were exsanguinated under ketamine/xylazine anesthesia. Serum was collected, separated into 10 aliquots and stored at −80° C.
# Serum concentrations of testosterone (T), leptin, Insulin and IGF-1 were determined by commercially available ELISA kits.
# [1] = Whole body DEXA body composition (lean body mass, body fat) in ovariectomized female rats; assay type: in vivo, Sprague-Dawley rats; details: 3 mg/day s.c., 90 day time point
# Method: Two hundred and thirty (230) female Sprague-Dawley rats (23 weeks of age) were used in these studies.
# Animals were randomized (n=10 per group) into each of the treatment groups outlined in Table 2 below. Animals assigned to groups 6 through 23 were ovariectomized on day 0 of the experiment.
# Drug administration with Compound VI, bicalutamide (an antiandrogen), and/or DHT commenced on day 0 or 90 with the compound of interest administered via daily subcutaneous injection (0.20 mL) and continued until day 120 or 210 of the study. Drug solutions were prepared daily by dissolving in DMSO and dilution with PEG 300. The percentage of DMSO was the same in all vehicles (17.6%), as determined based on the solubility of the test compounds.
# Whole body DEXA images were collected up to 120 or 210 days after ovariectomy, as described in Table 2. Lean body mass (LBM), fat mass (FM) and total body mass (TBM) were determined at each time point.
# [2] = Organ weights in intact male rats (tissue-selective anabolic activity); assay type: in vivo, Sprague-Dawley rats; details: 500 μg/day
# androgen receptor (AR) = test: In vitro androgen receptor binding affinity
Compound,"Leptin, percent of control (leptin; 1 w)","Normalized Leptin, percent of control (leptin; 1 w)","Leptin, percent of control (leptin; 2 w)","Normalized Leptin, percent of control (leptin; 2 w)","Leptin, percent of control (leptin; 4 w)","Normalized Leptin, percent of control (leptin; 4 w)",Normalized Leptin (leptin; 1 w),Normalized Leptin (leptin; 2 w),Normalized Leptin (leptin; 4 w),Leptin (leptin; 1 w) [ng/mL],Leptin (leptin; 2 w) [ng/mL],Leptin (leptin; 4 w) [ng/mL],decrease in body fat as compared to the ovariectomized (OVX) control group [1] [%],increase in lean mass as compared to the ovariectomized (OVX) control group [1] [%],changes in organ weight [2],in vitro androgen receptor (AR) binding affinity (androgen receptor (AR)),decrease of serum leptin levels compared with the vehicle control (leptin; 2 w) [%],decrease of serum leptin levels compared with the vehicle control (leptin; 4 w) [%]
"CCC(=O)O[C@H]1CC[C@H]2[C@@H]3CCC4=CC(=O)CC[C@]4(C)[C@H]3CC[C@]12C [TP, testosterone propionate, reference compound]",(102%),(93%),(84%),(92%),(92%),(90%),6.67 ± 1.96 (pg/ml)/BW (g),7.04 ± 1.97 (pg/ml)/BW (g),16.0 ± 1.7 (pg/ml)/BW (g),1.74 ± 0.53,2.19 ± 0.67,5.89 ± 0.77,,,,,,
CC(=O)Nc1ccc(OC[C@](C)(O)C(=O)Nc2ccc([N+](=O)[O-])c(C(F)(F)F)c2)cc1 [Compound VI],(96%),(93%),(107%),(104%),(104%),(105%),6.65 ± 1.07 (pg/ml)/BW (g),8.99 ± 0.99 (pg/ml)/BW (g),18.7 ± 4.2 (pg/ml)/BW (g),1.71 ± 0.31,2.81 ± 0.29,6.62 ± 1.12,3.6,9,tissue-selective anabolic activity,high,,
C[C@](O)(COc1ccc(F)cc1)C(=O)Nc1ccc([N+](=O)[O-])c(C(F)(F)F)c1 [Compound VII],(84%),(81%),(64%),(63%),(77%),(78%),5.80 ± 1.73 (pg/ml)/BW (g),5.47 ± 1.03 (pg/ml)/BW (g),13.82 ± 1.17 (pg/ml)/BW (g),1.45 ± 0.47,1.68 ± 0.29,4.89 ± 0.61,,,tissue-selective anabolic activity,,36,22
